Molecular target: T1, mAChR M4 (Homo sapiens, UniProt P08173)
T1 construct: expressed in transfected cells; host or cells: CHO-K1 cells stably transfected with M4 cDNA and chimeric G-protein Gqi5
T1 sequence (P08173 1-479): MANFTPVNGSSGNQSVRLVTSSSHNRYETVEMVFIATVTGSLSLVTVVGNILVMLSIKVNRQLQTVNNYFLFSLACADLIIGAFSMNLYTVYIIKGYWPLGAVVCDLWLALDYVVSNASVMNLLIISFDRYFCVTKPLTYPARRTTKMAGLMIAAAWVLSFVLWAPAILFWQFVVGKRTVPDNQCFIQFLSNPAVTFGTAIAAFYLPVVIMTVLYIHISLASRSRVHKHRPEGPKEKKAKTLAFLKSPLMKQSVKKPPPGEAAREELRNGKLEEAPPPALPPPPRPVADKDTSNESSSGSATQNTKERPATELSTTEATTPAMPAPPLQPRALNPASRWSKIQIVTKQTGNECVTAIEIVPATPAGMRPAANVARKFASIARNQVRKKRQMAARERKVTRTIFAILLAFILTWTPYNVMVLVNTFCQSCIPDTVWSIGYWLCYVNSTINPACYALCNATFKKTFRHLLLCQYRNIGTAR
Experiment: mAChR M4 cell-based functional assay (calcium mobilization, potentiation of EC20 acetylcholine response)
Conditions: for Emax at 30 µM: % ACh maximum at 30 μM; for EC50: mAChR M4 cell-based functional assay, >10,000 estimated for low potency compounds without plateau, read-out: EC50

SMILES | Emax at 30 µM [%] | EC50 [nM]
Cc1nnc2sc(C(=O)N3CCC(NC(=O)c4cccc(F)c4)C3)c(N)c2c1C (stereo not shown) [Example B216] | 62 | > 10000
Cc1nnc2sc(C(=O)N3CC(F)(c4cccc(-c5cncnc5)c4)C3)c(N)c2c1C [Example B317] | 47 | 290
Cc1nnc2sc(C(=O)NCc3ccc(-c4ccnc(F)c4)cc3)c(N)c2c1C [Example B461] | 84 | 23
Cc1nnc2sc(C(=O)N3CCC4(CCCC4)C3)c(N)c2c1C [Example B381] | 63 | 710
Cc1nnc2sc(C(=O)N3CC(Cc4ccccc4)C3)c(N)c2c1C [Example B275] | 65 | 200
Cc1nnc2sc(C(=O)NCc3ccc(O)cc3)c(N)c2c1C [Example B95] | 66 | 47
COc1ccc([C@H]2C[C@@H]2NC(=O)c2sc3nnc(C)c(C)c3c2N)cc1 (single isomer, unassigned) [Example B31] | 79 | 7.5
Cc1nnc2sc(C(=O)N3CCCn4nccc43)c(N)c2c1C [Example B445] | 31 | > 10000
CCCCCC(=O)N1CCC(NC(=O)c2sc3nnc(C)c(C)c3c2N)C1 (stereo not shown) [Example B232] | 77 | 530
COc1ccc(C2(CNC(=O)c3sc4nnc(C)c(C)c4c3N)CC2)cc1 [Example B75] | 41 | 360
Cc1nnc2sc(C(=O)NC3CCN(c4ccc(OC(F)(F)F)cc4)C3)c(N)c2c1C (stereo not shown) [Example B273] | 71 | 230
Cc1nnc2sc(C(=O)N3CC(NC(=O)c4ccncc4)C3)c(N)c2c1C [Example B184] | 48 | 1900
Cc1nnc2sc(C(=O)N3CC(F)(c4ccc(-c5cncnc5)cc4)C3)c(N)c2c1C [Example B326] | 50 | 390
Cc1nnc2sc(C(=O)NC3CN(C(=O)c4ccc(F)cc4)C3)c(N)c2c1C [Example B155] | 91 | 93
Cc1nnc2sc(C(=O)NCc3ccc(S(C)(=O)=O)nc3)c(N)c2c1C [Example B330] | 68 | 150
Cc1nnc2sc(C(=O)N3CCC(NC(=O)c4ccc(F)c(F)c4)C3)c(N)c2c1C (stereo not shown) [Example B217] | 53 | 1100
Nc1c(C(=O)NCc2ccccc2)sc2nnc3c(c12)CCCC3 [Example B51] | 51 | 130
Cc1cc(-c2ccc(CNC(=O)c3sc4nnc(C)c(C)c4c3N)cc2)cnc1Cl [Example B458] | 82 | 32
Cc1nnc2sc(C(=O)NCc3ccc(F)cn3)c(N)c2c1C [Example B509] | 59 | 1400
Cc1nnc2sc(C(=O)NC3CN(c4nc5ccccc5s4)C3)c(N)c2c1C [Example B422] | 73 | 17
COc1ccc(CNC(=O)c2sc3nnc4c(c3c2N)CCCC4)cc1 [Example B52] | 54 | 77
COc1ccc(CNC(=O)c2sc3nnc(-c4ccccc4)c(-c4ccccc4)c3c2N)cc1 [Example B40] | 47 | 2700
COCOc1ccc(CNC(=O)c2sc3nnc(C)c(C)c3c2N)cc1F [Example B162] | 66 | 17
Nc1c(C(=O)NCC2CC2)sc2nnc3c(c12)CCCC3 [Example B54] | 37 | 790
Cc1nnc2sc(C(=O)NC3CCN(C(=O)C4CC4)C3)c(N)c2c1C (stereo not shown) [Example B242] | 79 | 1300

SMILES | Emax at 30 µM [%] | EC50 [nM]
Cc1nnc2sc(C(=O)NC3CN(C(=O)C4CC4)C3)c(N)c2c1C [Example B135] | 73 | 230
Cc1nnc2sc(C(=O)N3CC(S(=O)(=O)c4ccccc4)C3)c(N)c2c1C [Example B413] | 54 | 350
Cc1nnc2sc(C(=O)NC3CCN(C(=O)N4CCOCC4)C3)c(N)c2c1C (stereo not shown) [Example B208] | 73 | 2100
Cc1nnc2sc(C(=O)N3CC(F)(c4cccc(N=[N+]=[N-])c4)C3)c(N)c2c1C [Example B401] | 54 | 3100
Cc1nnc2sc(C(=O)NCCN(C)C(=O)c3ccccc3)c(N)c2c1C [Example B369] | 25 | > 10000
CS(=O)(=O)c1ccc(CNC(=O)c2sc3nnc(-c4ccccc4)c(-c4ccccc4)c3c2N)cc1 [Example B41] | 48 | > 10000
Nc1c(C(=O)NCc2ccc3c(c2)OCO3)sc2nnccc12 [Example B22] | 63 | 2800
COC1(C2CCCCC2)CN(C(=O)c2sc3nnc(C)c(C)c3c2N)C1 [Example B304] | 43 | 1100
Cc1nnc2sc(C(=O)NCc3ccc(S(=O)(=O)C(C)(F)F)cc3)c(N)c2c1C [Example B118] | 66 | 10
Cc1nnc2sc(C(=O)NC3CN(c4nccs4)C3)c(N)c2c1C [Example B430] | 58 | 2100
Cc1nnc2sc(C(=O)NCc3ccc(Br)cn3)c(N)c2c1C [Example B471] | 60 | 390
COC1(CCC2OCCCO2)CN(C(=O)c2sc3nnc(C)c(C)c3c2N)C1 [Example B298] | 43 | 4300
Cc1cc(CNC(=O)c2sc3nnc(C)c(C)c3c2N)ccn1 [Example B4] | 96 | 640
COc1cccc(S(=O)(=O)N2CCC(NC(=O)c3sc4nnc(C)c(C)c4c3N)C2)c1 (stereo not shown) [Example B214] | 73 | 820
CCCOC(=O)NC(CCl)CNC(=O)c1sc2nnc(C)c(C)c2c1N (stereo not shown) [Example B165] | 32 | > 10000
Cc1nnc2sc(C(=O)NCc3ccc(S(=O)(=O)C(C)(C)C)cc3)c(N)c2c1C [Example B47] | 76 | 41
Cc1nnc2sc(C(=O)N3CCC(C4CCCCC4)C3)c(N)c2c1C (stereo not shown) [Example B379] | 45 | 3900
CCCCCC(=O)N1CC(NC(=O)c2sc3nnc(C)c(C)c3c2N)C1 [Example B152] | 85 | 110
Cc1nnc2sc(C(=O)NCc3ccc([S+]([O-])C(F)(F)F)cc3)c(N)c2c1C (stereo not shown) [Example B476] | 66 | 1600
Cc1nnc2sc(C(=O)NCc3ccc(C(C)S(C)(=O)=O)cc3)c(N)c2c1C (stereo not shown) [Example B104] | 63 | 150
Cc1nnc2sc(C(=O)NCc3ccc(S(=O)(=O)c4ccccc4)cc3)c(N)c2c1C [Example B505] | 63 | 110
Cc1nnc2sc(C(=O)NCc3ccc(F)c(S(C)(=O)=O)c3)c(N)c2c1C [Example B78] | 63 | 230
CCCOC(=O)NC1CCN(C(=O)c2sc3nnc(C)c(C)c3c2N)C1 (stereo not shown) [Example B210] | 58 | > 10000
Cc1cccc(OC(=O)N2CC(NC(=O)c3sc4nnc(C)c(C)c4c3N)C2)c1 [Example B365] | 58 | 7.9
Cc1nnc2sc(C(=O)NCCNS(=O)(=O)c3ccccc3)c(N)c2c1C [Example B360] | 52 | 2500

From patent US9868746B2, “Substituted 5-aminothieno[2,3-C]pyridazine-6-carboxamide analogs as positive allosteric modulators of the muscarinic acetylcholine receptor M4” (Vanderbilt University, priority 2012, dated 2018)
